Earlier results on 1 compound are cited in US8835453B2, “Sustained release implant for granisetron” (Development Center for Biotechnology, priority 2008, dated 2014).

Each structure is given as a SMILES string. Counter-ions that a name gives are not always drawn.

The conditions of the data set: water and normal saline at 20° C.

As for `CN1C2CCCC1CC(NC(=O)c1nn(C)c3ccccc13)C2` (stereo not drawn) [Granisetron hydrochloride, endo-N-(9-methyl-9-azabicyclo[3.3.1]non-3-yl)-1-methyl-1H-indazole-3-carboxamide], the solubility entry was “soluble”.
